For orientation: IC50 means the concentration at which inhibition is half-maximal. Lower therefore signals greater potency.

Consider five compounds from publication PMC12567082, “Silver(I) Complexes Bearing S-Alkyl Thiosalicylic Acid Derivatives: DNA/BSA Binding and Antitumor Activity In Vitro and In Vivo” (Pharmaceutics, 2025).

Series [1] deals with human fibroblast cell lines (MRC-5). The series can be described thus: MTT assay MRC-5. The class given is cell-based. The procedure: (§1) Mouse breast cancer (4T1), human breast cancer (MDA-MB-468), mouse colon cancer (CT26), human colon cancer (HCT-116), mouse lung cancer (LLC1), human lung cancer (A549), mouse mesenchymal stem cells (mMSC), and human fibroblast cell lines (MRC-5) were used in this study and were consistently cultured in complete Dulbecco’s Modified Eagle Medium (DMEM) (Sigma-Aldrich, St. Louis, MO, USA) in incubator (5% CO2) under standard conditions. Complete DMEM was Dulbecco’s Modified Eagle Medium supplemented with 10% fetal bovine serum (FBS), 1 mmol/L penicillin–streptomycin, 1 mmol/L mixed nonessential amino acids, and 2 mmol/L L-glutamine (Sigma-Aldrich, St. Louis, MO, USA). All cancer cell lines and MRC-5 cell line were obtained from American Type Culture Collection (ATCC, Manassas, VA, USA), but mMSC was manufactured by Gibco (Middlesex County, MA, USA).
(§2) In 96-well microplates, we seeded cancer and non-cancer cells, more exactly 5 × 10^3 cells per well in 100 μL of complete DMEM (Sigma-Aldrich, St. Louis, MO, USA). […] Tested concentration range for all metal-based substances was 3.9–500 μM. After incubation with MTT solution (5 mg/mL; pH 7.2) for 4 h, optical density was determined using Zenyth 3100 microplate multimode detector (Salzburg, Austria). All experiments were performed three times, each in triplicate, and the IC50 values as well as selectivity indexes (IC50 for mMSC or MRC-5/IC50 for mouse or human cancer cells) were calculated.
In general terms: Formazan colour is commonly taken as a measure of viable cells.

In series [2] the test system is mouse colon cancer (CT26). The series can be described thus: MTT assay CT26. The class given is cell-based. The procedure: as §1, §2
Series [3] has as its system Mouse breast cancer (4T1). Description: MTT assay 4T1. In kind it is cell-based. As to the method:
as §1, §2

Series [4] has as its system human breast cancer (MDA-MB-468). The series can be described thus: MTT assay MDA-MB-468. In kind it is cell-based. The procedure: as §1, §2
The next series relates to human lung cancer (A549). Description: MTT assay A549. In kind it is cell-based. The procedure: as §1, §2
Series [5] has as its system mouse mesenchymal stem cells (mMSC). Description: MTT assay mMSC. In kind it is cell-based. The following applies: 24 h. As to the method:
as §1, §2

The subject of series [6] is human colon cancer (HCT-116). Description: MTT assay HCT116. In kind it is cell-based. The procedure: as §1, §2
The test system of a further series is BALB/C female mice. Description: In vivo toxicity (serum biochemistry, liver and kidney histology). The following applies: 6 mg/kg, H&E, day 30. The procedure:
(§3) Ethics Committee of the Faculty of Medical Sciences of the University of Kragujevac, Serbia, approved all experiments (01-5301/11). ARRIVE guidelines and EU Directive 2010/63/EU for animal experiments were followed. Experimental animals, BALB/C female mice (8–10 weeks old), were housed under standard conditions (temperature-controlled environment, a 12 h light–dark cycle, fed ad libitum, and observed daily) throughout whole duration of experiment. Animals were inoculated with 4T1 cells (3 × 10^4) into the fourth mammary fat pad as previously described. Animals were randomly assigned to experimental or control groups, and after palpable tumors were detected, the pharmacological treatments were started. Female BALB/C mice intraperitoneally received either C3 (3 mg/kg), C3 (6 mg/kg), CDDP (6 mg/kg), or vehicle in distilled water with 0.05% DMSO (Sigma-Aldrich, St. Louis, MO, USA) (untreated group) in five single doses every third day (8 animals per group). Using electronic calipers (Moore and Wright, Sheffield, UK), the sizes of primary 4T1 mammary tumors were morphometrically evaluated. On the 30th day of experiment, animals were sacrificed, blood was collected (for determination of serum levels of ALT, AST, urea, and creatinine), and tissue sections (liver and kidney) were stained with H&E for further analysis. Liver or kidney sections were analyzed by two observers, and the injury levels were determined as previously reported.

The next series relates to mouse lung cancer (LLC1). The series can be described thus: MTT assay LLC1. In kind it is cell-based. The note with it: LLC1, 24 h. The procedure:
as §1, §2

The subject of the next series is 4T1 mammary tumors. The series can be described thus: Breast cancer development in vivo (orthotopic 4T1). Set-up: species or system BALB/C female mice. The note with it: 6 mg/kg i.p., five single doses every third day, after day 18. The procedure:
as §3

Take `CCSc1ccccc1C(=O)O` [L2, S-ethyl derivative of thiosalicylic]: the half-maximal inhibitory concentration (IC50) in series [1] (MRC-5, 48 h) came out at 384 ± 20.5 µM; in [2] (CT26, 48 h) it was 465 ± 39.5 µM; in [3] (4T1, 48 h) it was 500 ± 7.6 µM.
`CCCCSc1ccccc1C(=O)O` [L4, S-butyl derivative of thiosalicylic]: the IC50 in [2] (CT26, 48 h) amounted to 368 ± 58.3 µM; in series [4] (MDA-MB-468, 48 h), 408 ± 12.7 µM; in the series on human lung cancer (A549) (A549, 24 h) it was 494.9 ± 3.58 µM; in the series on human lung cancer (A549) (A549, 48 h) it was 490 ± 22 µM; in series [3] (4T1, 24 h), 407 ± 35.1 µM; in series [3] (4T1, 48 h), 417 ± 61.4 µM.
With `CSc1ccccc1C(=O)O` [L1, S-methyl derivative of thiosalicylic acid], the IC50 in [1] (MRC-5, 48 h) turned out to be 488 ± 41.6 µM; in [3] (4T1, 48 h), 443 ± 30.5 µM.
In the case of `[NH2][Pt]([NH2])([Cl])[Cl]` [CDDP, cisplatin, reference compound], the IC50 in series [5] stood at 17.1 ± 1.15 µM; in series [1] (MRC-5, 24 h), 40.5 ± 0.57 µM; in [1] (MRC-5, 48 h) it was 27.4 ± 0.72 µM; in [6] (HCT 116, 24 h), 63.3 ± 3.21 µM; in series [6] (HCT 116, 48 h) it was 15.8 ± 1.28 µM; in [2] (CT26, 24 h) it was 16.9 ± 1.42 µM. In addition, the half-inhibitory concentration (IC50) was 4.06 ± 0.97 µM in series [4] (MDA-MB-468, 24 h); 23.2 ± 1.77 µM with human lung cancer (A549) (A549, 24 h); 14 ± 1.44 µM in the series with human lung cancer (A549) (A549, 48 h); 21.8 ± 1.11 µM in the series with mouse lung cancer (LLC1); 12 ± 1.98 µM in [3] (4T1, 24 h); 5.17 ± 0.98 µM in [3] (4T1, 48 h). The “Selectivity Index (IC50 mMSC or MRC-5/ IC50 Cancer Cell)” value in series [6] (HCT-116, 24 h) is recorded as 0.64; in [6] (HCT-116, 48 h), 1.73; in [2] (CT26, 24 h) it was 1.01; in series [4] (MDA-MB-468, 24 h), 9.98; with human lung cancer (A549) (A549, 24 h), 1.74; in the series with human lung cancer (A549) (A549, 48 h), 1.95. Moreover, the “Selectivity Index (IC50 mMSC or MRC-5/ IC50 Cancer Cell)” value is 0.79 in the series with mouse lung cancer (LLC1) and 1.43 in [3] (4T1, 24 h). Further, the “liver changes (histopathology)” value in the series on BALB/C female mice is “piecemeal necrosis, focal lytic necrosis, and portal inflammation”. The “tumor growth compared to the untreated group” value in the series on 4T1 mammary tumors was “significantly slower”.
Take `CCCSc1ccccc1C(=O)O` [L3, S-propyl derivative of thiosalicylic acid]: the IC50 with human lung cancer (A549) (A549, 48 h) worked out at 500 ± 47.3 µM; in series [3] (4T1, 48 h), 500 ± 30.5 µM.
